Measurements: ChEMBL document CHEMBL4507310, “Data for DCP probe A-1211212” (2021)

Assays:
[1] = molecular target: Tyrosine-protein kinase ITK/TSK (Homo sapiens) (UniProt Q08881); details: Compound concentration 1000.0 nM
[2] = molecular target: Serine/threonine-protein kinase Nek5 (Homo sapiens) (UniProt Q6P3R8); details: Compound concentration 1000.0 nM
[3] = molecular target: Megakaryocyte-associated tyrosine-protein kinase (Homo sapiens) (UniProt P42679); details: Compound concentration 1000.0 nM
[4] = molecular target: Androgen receptor (Homo sapiens) (UniProt P10275); experiment: AR (h) Eurofins-Cerep binding assay; design: ligand concentration 1 nM; details: filed as agonist, Compound concentration 10.0 uM
Sequence of Androgen receptor (Homo sapiens) (P10275 whole entry): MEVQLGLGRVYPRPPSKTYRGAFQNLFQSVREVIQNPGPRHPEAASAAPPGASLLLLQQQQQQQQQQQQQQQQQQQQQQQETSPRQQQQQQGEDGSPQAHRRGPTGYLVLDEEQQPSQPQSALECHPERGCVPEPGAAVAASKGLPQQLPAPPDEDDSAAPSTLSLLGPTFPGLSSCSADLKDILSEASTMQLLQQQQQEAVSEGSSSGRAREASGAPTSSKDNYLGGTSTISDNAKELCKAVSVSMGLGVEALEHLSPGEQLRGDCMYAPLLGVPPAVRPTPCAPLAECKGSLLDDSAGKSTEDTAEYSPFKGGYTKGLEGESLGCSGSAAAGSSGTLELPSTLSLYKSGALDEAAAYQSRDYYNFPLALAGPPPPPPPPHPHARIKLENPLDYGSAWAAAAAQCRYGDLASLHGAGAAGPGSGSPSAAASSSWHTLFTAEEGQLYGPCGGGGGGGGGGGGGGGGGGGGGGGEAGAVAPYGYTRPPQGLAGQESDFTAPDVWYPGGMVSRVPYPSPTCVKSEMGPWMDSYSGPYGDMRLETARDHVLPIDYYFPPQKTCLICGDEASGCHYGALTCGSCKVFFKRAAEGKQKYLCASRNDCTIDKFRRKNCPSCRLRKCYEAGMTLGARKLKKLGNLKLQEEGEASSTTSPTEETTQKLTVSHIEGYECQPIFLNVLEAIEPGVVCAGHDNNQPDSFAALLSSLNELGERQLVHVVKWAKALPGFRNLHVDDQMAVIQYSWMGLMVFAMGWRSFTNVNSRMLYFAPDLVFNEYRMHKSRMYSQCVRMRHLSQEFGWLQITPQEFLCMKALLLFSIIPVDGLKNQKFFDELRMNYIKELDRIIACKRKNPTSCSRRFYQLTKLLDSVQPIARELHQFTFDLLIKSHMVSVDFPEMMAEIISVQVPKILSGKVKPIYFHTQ

[5] = molecular target: Mitogen-activated protein kinase kinase kinase kinase 5 (Homo sapiens) (UniProt Q9Y4K4); details: Compound concentration 1000.0 nM
[6] = test system: Epidermal growth factor receptor (Homo sapiens), P00533 [UNDEFINED MUTATION]; details: Compound concentration 1000.0 nM
Sequence of Epidermal growth factor receptor (Homo sapiens), P00533 [UNDEFINED MUTATION] (P00533 whole entry, looked up, change not shown): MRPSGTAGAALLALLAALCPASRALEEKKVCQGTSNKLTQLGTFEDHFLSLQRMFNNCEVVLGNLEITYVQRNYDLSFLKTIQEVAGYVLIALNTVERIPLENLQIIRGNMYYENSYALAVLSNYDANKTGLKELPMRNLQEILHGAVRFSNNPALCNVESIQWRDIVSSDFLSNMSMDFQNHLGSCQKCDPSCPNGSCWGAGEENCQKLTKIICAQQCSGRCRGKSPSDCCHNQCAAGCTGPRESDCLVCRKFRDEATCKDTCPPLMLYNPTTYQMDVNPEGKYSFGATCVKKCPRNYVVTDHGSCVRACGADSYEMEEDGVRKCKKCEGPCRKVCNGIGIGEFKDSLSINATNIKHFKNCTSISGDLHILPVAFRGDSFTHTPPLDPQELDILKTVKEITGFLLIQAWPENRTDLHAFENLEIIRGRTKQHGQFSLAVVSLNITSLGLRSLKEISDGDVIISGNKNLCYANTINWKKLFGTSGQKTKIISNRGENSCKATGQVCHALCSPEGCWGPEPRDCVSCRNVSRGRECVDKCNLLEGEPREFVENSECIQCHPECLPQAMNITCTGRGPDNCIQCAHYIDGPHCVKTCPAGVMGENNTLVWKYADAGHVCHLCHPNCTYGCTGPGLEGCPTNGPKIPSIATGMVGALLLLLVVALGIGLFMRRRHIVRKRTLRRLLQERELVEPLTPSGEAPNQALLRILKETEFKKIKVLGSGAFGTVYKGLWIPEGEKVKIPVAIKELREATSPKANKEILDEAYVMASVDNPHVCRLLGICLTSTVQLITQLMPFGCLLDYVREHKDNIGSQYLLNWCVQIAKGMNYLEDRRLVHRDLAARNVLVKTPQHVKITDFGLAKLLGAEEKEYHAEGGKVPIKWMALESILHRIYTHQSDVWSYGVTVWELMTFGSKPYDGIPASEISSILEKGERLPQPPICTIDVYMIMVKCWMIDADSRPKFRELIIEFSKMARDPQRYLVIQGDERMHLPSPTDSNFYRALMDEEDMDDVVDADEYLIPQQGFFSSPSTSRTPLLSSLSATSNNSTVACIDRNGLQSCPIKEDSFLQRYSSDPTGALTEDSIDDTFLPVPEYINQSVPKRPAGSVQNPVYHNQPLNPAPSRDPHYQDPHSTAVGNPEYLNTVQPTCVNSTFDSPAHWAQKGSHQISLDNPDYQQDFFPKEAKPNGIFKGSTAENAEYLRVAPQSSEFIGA

[7] = molecular target: Mitogen-activated protein kinase kinase kinase 2 (Homo sapiens) (UniProt Q9Y2U5); details: Compound concentration 1000.0 nM
[8] = molecular target: Casein kinase I isoform gamma-3 (Homo sapiens) (UniProt Q9Y6M4); details: Compound concentration 1000.0 nM
Sequence of Casein kinase I isoform gamma-3 (Homo sapiens) (Q9Y6M4 whole entry, looked up, canonical isoform): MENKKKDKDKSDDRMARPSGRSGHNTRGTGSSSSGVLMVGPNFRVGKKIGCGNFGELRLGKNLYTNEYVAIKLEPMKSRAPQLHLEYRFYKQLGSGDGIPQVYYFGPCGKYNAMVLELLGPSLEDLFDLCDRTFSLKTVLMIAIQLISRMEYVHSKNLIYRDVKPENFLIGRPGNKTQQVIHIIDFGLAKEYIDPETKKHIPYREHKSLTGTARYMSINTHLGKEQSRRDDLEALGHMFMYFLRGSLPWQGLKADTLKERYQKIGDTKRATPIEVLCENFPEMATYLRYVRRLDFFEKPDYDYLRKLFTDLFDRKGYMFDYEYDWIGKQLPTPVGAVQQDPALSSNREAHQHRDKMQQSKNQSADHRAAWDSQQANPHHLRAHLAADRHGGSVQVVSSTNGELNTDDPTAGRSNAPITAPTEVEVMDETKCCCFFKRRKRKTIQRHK

[9] = molecular target: 5-hydroxytryptamine receptor 1D (Homo sapiens) (UniProt P28221); details: Compound concentration 10.0 uM
[10] = molecular target: Myotonin-protein kinase (Homo sapiens) (UniProt Q09013); details: Compound concentration 1000.0 nM
[11] = molecular target: Misshapen-like kinase 1 (Homo sapiens) (UniProt Q8N4C8); details: Compound concentration 1000.0 nM
[12] = molecular target: Serine/threonine-protein kinase 32B (Homo sapiens) (UniProt Q9NY57); details: Compound concentration 1000.0 nM
[13] = molecular target: Serine/threonine-protein kinase Sgk3 (Homo sapiens) (UniProt Q96BR1); details: Compound concentration 1000.0 nM
[14] = molecular target: Serine/threonine-protein kinase NLK (Homo sapiens) (UniProt Q9UBE8); details: Compound concentration 1000.0 nM
[15] = molecular target: Mitogen-activated protein kinase 3 (Homo sapiens) (UniProt P27361); details: Compound concentration 1000.0 nM
Sequence of Mitogen-activated protein kinase 3 (Homo sapiens) (P27361 whole entry): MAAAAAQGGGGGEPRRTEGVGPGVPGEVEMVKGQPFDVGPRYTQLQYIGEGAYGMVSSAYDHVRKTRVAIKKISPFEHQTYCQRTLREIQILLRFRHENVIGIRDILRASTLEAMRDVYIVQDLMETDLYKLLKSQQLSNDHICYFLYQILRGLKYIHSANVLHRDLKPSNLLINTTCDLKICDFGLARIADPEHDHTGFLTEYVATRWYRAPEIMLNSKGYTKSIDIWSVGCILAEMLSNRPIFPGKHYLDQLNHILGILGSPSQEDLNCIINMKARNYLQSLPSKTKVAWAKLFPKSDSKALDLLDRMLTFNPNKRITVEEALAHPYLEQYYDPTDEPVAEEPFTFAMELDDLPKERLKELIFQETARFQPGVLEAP

[16] = molecular target: Serine/threonine-protein kinase N2 (Homo sapiens) (UniProt Q16513); details: Compound concentration 1000.0 nM
[17] = molecular target: Cyclin-dependent kinase 5 (Homo sapiens) (UniProt Q00535); details: Compound concentration 1000.0 nM
[18] = molecular target: Delta-type opioid receptor (Homo sapiens) (UniProt P41143); details: Compound concentration 10.0 uM
[19] = test system: Proto-oncogene tyrosine-protein kinase receptor Ret (Homo sapiens), P07949 [V804L]; details: Compound concentration 1000.0 nM
[20] = test system: Tyrosine-protein kinase ABL1 (Homo sapiens), P00519 [F317I]; details: Compound concentration 1000.0 nM
[21] = molecular target: T1, Muscarinic acetylcholine receptor M2 (Homo sapiens) (UniProt P08172); experiment: M2 (h) Eurofins-Cerep binding assay; design: ligand concentration 2 nM; details: filed as antagonist, Compound concentration 10.0 uM
T1 sequence (whole entry): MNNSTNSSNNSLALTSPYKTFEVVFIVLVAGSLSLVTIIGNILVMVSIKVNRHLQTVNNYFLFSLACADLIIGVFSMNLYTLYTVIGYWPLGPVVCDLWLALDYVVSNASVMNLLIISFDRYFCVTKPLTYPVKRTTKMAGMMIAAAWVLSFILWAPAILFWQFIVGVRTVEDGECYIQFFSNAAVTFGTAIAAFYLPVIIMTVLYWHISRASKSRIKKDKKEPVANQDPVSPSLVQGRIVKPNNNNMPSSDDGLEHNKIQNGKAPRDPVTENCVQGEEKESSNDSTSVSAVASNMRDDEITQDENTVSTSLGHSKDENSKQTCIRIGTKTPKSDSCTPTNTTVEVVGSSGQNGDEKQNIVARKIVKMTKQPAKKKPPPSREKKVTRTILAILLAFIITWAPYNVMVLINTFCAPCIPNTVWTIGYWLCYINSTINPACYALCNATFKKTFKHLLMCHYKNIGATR

[22] = molecular target: cAMP-dependent protein kinase catalytic subunit alpha (Homo sapiens) (UniProt P17612); details: Compound concentration 1000.0 nM
[23] = molecular target: TGF-beta receptor type-2 (Homo sapiens) (UniProt P37173); details: Compound concentration 1000.0 nM
[24] = molecular target: Tyrosine-protein kinase ABL2 (Homo sapiens) (UniProt P42684); details: Compound concentration 1000.0 nM
Sequence of Tyrosine-protein kinase ABL2 (Homo sapiens) (P42684 whole entry): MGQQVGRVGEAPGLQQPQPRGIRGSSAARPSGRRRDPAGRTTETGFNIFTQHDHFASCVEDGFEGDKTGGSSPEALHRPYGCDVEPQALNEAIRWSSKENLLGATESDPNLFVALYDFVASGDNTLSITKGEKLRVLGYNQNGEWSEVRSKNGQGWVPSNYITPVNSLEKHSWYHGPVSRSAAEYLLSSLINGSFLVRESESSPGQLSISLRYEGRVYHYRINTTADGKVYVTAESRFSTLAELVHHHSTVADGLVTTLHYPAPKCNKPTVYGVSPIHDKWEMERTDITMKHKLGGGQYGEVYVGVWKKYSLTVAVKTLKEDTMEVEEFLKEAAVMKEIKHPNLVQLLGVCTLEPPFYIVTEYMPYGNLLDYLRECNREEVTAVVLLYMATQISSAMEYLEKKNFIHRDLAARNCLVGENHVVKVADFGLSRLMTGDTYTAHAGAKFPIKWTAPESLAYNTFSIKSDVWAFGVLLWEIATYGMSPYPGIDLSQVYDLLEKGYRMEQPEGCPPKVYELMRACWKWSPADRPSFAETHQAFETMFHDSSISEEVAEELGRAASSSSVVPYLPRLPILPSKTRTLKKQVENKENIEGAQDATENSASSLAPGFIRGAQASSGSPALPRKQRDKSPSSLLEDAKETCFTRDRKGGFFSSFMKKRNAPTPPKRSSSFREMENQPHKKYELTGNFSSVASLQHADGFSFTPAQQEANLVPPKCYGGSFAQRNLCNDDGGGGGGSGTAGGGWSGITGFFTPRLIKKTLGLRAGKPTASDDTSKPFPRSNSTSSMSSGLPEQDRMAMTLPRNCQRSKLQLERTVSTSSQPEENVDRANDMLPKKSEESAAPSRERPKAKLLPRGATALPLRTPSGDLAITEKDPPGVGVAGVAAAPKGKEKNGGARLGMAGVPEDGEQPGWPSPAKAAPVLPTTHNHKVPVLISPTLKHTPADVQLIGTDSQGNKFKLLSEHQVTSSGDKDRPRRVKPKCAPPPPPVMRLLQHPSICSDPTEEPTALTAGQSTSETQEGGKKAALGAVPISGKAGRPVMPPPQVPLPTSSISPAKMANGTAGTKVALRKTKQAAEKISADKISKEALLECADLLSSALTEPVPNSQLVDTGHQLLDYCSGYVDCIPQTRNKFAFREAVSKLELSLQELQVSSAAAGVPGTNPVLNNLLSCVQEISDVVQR

[25] = molecular target: RAF proto-oncogene serine/threonine-protein kinase (Homo sapiens) (UniProt P04049); details: Compound concentration 1000.0 nM
[26] = molecular target: Serine/threonine-protein kinase PLK3 (Homo sapiens) (UniProt Q9H4B4); details: Compound concentration 1000.0 nM
[27] = molecular target: Maternal embryonic leucine zipper kinase (Homo sapiens) (UniProt Q14680); details: Compound concentration 1000.0 nM
[28] = test system: Hepatocyte growth factor receptor (Homo sapiens), P08581 [M1250T]; details: Compound concentration 1000.0 nM
[29] = molecular target: Serine/threonine-protein kinase D1 (Homo sapiens) (UniProt Q15139); details: Compound concentration 1000.0 nM
[30] = molecular target: Serine/threonine-protein kinase MARK2 (Homo sapiens) (UniProt Q7KZI7); details: Compound concentration 1000.0 nM
Sequence of Serine/threonine-protein kinase MARK2 (Homo sapiens) (Q7KZI7 whole entry): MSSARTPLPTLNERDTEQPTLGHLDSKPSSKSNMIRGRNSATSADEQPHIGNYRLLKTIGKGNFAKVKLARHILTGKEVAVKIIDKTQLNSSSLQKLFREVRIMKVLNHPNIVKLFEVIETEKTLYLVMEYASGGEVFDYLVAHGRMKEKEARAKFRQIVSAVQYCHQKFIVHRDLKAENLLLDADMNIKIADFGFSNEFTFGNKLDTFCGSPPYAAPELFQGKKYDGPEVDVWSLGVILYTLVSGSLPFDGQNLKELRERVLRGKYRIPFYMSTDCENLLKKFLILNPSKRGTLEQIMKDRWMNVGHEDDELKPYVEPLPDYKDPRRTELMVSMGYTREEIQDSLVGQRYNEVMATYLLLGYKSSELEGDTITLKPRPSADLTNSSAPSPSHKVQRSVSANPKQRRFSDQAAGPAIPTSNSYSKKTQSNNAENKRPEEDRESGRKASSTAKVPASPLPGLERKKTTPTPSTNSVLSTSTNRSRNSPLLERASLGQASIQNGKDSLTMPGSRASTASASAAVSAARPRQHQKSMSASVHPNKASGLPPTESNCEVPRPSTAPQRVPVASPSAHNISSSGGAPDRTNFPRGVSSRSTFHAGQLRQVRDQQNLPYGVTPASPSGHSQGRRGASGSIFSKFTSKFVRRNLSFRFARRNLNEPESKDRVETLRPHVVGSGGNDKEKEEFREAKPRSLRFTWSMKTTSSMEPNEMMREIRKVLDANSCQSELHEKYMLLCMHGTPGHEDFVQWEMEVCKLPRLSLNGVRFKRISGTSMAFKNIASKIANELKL

[31] = molecular target: Mitogen-activated protein kinase kinase kinase kinase 2 (Homo sapiens) (UniProt Q12851); details: Compound concentration 1000.0 nM
[32] = molecular target: Serine/threonine-protein kinase MRCK alpha (Homo sapiens) (UniProt Q5VT25); details: Compound concentration 1000.0 nM
[33] = molecular target: Mitogen-activated protein kinase 9 (Homo sapiens) (UniProt P45984); details: Compound concentration 1000.0 nM
[34] = molecular target: Tyrosine-protein kinase Blk (Homo sapiens) (UniProt P51451); details: Compound concentration 1000.0 nM
[35] = molecular target: Protein-tyrosine kinase 2-beta (Homo sapiens) (UniProt Q14289); details: Compound concentration 1000.0 nM
[36] = molecular target: Homeodomain-interacting protein kinase 4 (Homo sapiens) (UniProt Q8NE63); details: Compound concentration 1000.0 nM
[37] = molecular target: Cyclin-dependent kinase 4 (Homo sapiens) (UniProt P11802); details: Compound concentration 1000.0 nM
[38] = molecular target: Tyrosine-protein kinase Fes/Fps (Homo sapiens) (UniProt P07332); details: Compound concentration 1000.0 nM
[39] = molecular target: Calcium/calmodulin-dependent protein kinase type 1D (Homo sapiens) (UniProt Q8IU85); details: Compound concentration 1000.0 nM

`CO[C@H]1CC[C@H](CNc2ccc(S(=O)(=O)NC(=O)c3ccc(N4CCN(CC5=C(c6ccc(Cl)cc6)CC(C)(C)CC5)CC4)cc3Oc3cnc4[nH]ccc4c3)cc2[N+](=O)[O-])CC1` [A-1211212] gave a residual activity [1] of 87%, a residual activity [2] of 88% and a residual activity [3] of 89%. The % Inhibition of Control Specific Binding (Mean n=2) [4] was -8.6%, the residual activity [5] was 93% and the residual activity [6] was 65%. The residual activity [7] was 68%, the residual activity [8] was 91% and the inhibition [9] was 8.17%. The residual activity [10] was 91%, the residual activity [11] was 88% and the residual activity [12] was 100%. The residual activity [13] was 99%, the residual activity [14] was 100% and the residual activity [15] was 80%. For the same molecule, the residual activity [16] was 97%, the residual activity [17] was 82% and the inhibition [18] was 5.68%. It also gave a residual activity [19] of 88%, a residual activity [20] of 100% and a % Inhibition of Control Specific Binding (Mean n=2) [21] of -4.7%. The residual activity [22] was 78%, the residual activity [23] was 74% and the residual activity [24] was 81%. It also gave a residual activity [25] of 94%, a residual activity [26] of 100% and a residual activity [27] of 67%. For the same molecule, the residual activity [28] was 96%, the residual activity [29] was 76% and the residual activity [30] was 100%. For the same molecule, the residual activity [31] was 83%, the residual activity [32] was 56% and the residual activity [33] was 82%. The residual activity [34] was 76%, the residual activity [35] was 87% and the residual activity [36] was 4.4%. It also gave a residual activity [37] of 100%, a residual activity [38] of 100% and a residual activity [39] of 80%.

`O=C(NS(=O)(=O)c1ccc(NCC2CCOCC2)c([N+](=O)[O-])c1)c1ccc(N2CCN(Cc3ccc(C(F)(F)F)cc3-c3ccc(Cl)cc3)CC2)cc1Oc1cnc2[nH]ccc2c1` [A-1210227] gave a residual activity [1] of 100%, a residual activity [2] of 100% and a residual activity [3] of 100%. For the same molecule, the % Inhibition of Control Specific Binding (Mean n=2) [4] was -0.7%, the residual activity [5] was 98% and the residual activity [6] was 88%. It also gave a residual activity [7] of 100%, a residual activity [8] of 75% and an inhibition [9] of -6.27%. It also gave a residual activity [10] of 100%, a residual activity [11] of 84% and a residual activity [12] of 100%. The residual activity [13] was 92%, the residual activity [14] was 93% and the residual activity [15] was 98%. For the same molecule, the residual activity [16] was 93%, the residual activity [17] was 81% and the inhibition [18] was -3.92%. It also gave a residual activity [19] of 100%, a residual activity [20] of 100% and a % Inhibition of Control Specific Binding (Mean n=2) [21] of 0.3%. It also gave a residual activity [22] of 76%, a residual activity [23] of 76% and a residual activity [24] of 100%. For the same molecule, the residual activity [25] was 100%, the residual activity [26] was 100% and the residual activity [27] was 73%. It also gave a residual activity [28] of 86%, a residual activity [29] of 89% and a residual activity [30] of 100%. For the same molecule, the residual activity [31] was 76%, the residual activity [32] was 96% and the residual activity [33] was 85%. The residual activity [34] was 84%, the residual activity [35] was 100% and the residual activity [36] was 98%. It also gave a residual activity [37] of 100%, a residual activity [38] of 100% and a residual activity [39] of 92%.
